Data published in patent US20260365692A1, “COMPOSITIONS COMPRISING PROTEINS DISSOLVED IN FLUORINATED SOLVENTS, AND METHODS OF MAKING AND USING THE SAME” (priority 2022, published 2026).

Key:
[1] = Thermal stability of proteins in PFNA/PFOc (bioactivity after heating); assay type: physicochemical; details: PFNA/PFOc mixture compared to aqueous solution, 30 min heating
Protocol: FIGS. 16A-16C depict that the thermal stability of β-gal, GFP, and Trypsin is enhanced when the proteins are dissolved in a PFNA/PFOc mixture, compared to aqueous solutions of the proteins.
PFNA enhanced thermal stability in PFOc Differential scanning calorimetry (DSC) measurements were performed on 5 test proteins dissolved in either PBS (Aq.) or Perfluorooctane (PFOc). PFNA dispersant was added only for the PFOc conditions. DSC was performed at 2 °C/min ramp from 40 °C-100 °C. Melting temperature (Tm) was determined based on positive inflection of heat capacity curve, indicating protein unfolding (FIG. 15). Change in melting temperature (ATm (°C)) represented the difference in Tm between aqueous (Aq.) and PFOc data. Tm for GFP in PFOc could not be achieved at the maximum temperature of 100 °C for the DSC experiments. Each protein was dissolved in PBS (Aq.) or PFNA/PFOc mixture. Dissolved proteins were heated to 75 °C (β-gal), 90 °C (GFP) or 80 °C (Trypsin); treatment temperatures were determined based on aqueous melting temperatures for each protein. Positive controls were maintained at room temperature (25 °C). […] Bioactivity was evaluated then via fluorescence measurements for GFP, or using colorimetric substrate conversion assays (ONPG for β-gal, BAEE for Trypsin). […]

proteinase K = assay: β-Gal activity after proteinase K exposure; assay type: physicochemical; details: 24 hours
Description: (§1) FIGS. 54A-54C depict the relative activity of the β-Gal protein dispersed in PBS or PFOc solvents without and with contamination by (FIG. 54A) proteinase K, (FIG. 54B) bleach or (FIG. 54C) hydrochloric acid. Data shown as average±s.d. of n=3 technical replicates. Statistical significance between conditions is indicated by a line using unpaired Student's t-test with n.s.=not significant, * p<0.05, ** p<0.01, and *** p<0.001.
An equal volumetric amount of β-Gal and proteinase K stocks were mixed and incubated together for 24 hours. The remaining active β-Gal was evaluated by adding ONPG substrate diluted in PBS at 4 mg/mL directly to the samples. This action eluted β-Gal from PFOc solvent and immediately starting ONPG conversion without further β-Gal disruption from residue proteinase K that was also eluted into aqueous buffer. The enzymatic activity was calculated from measuring absorbance (420 nm) after 15-minute conversion. […] A likely explanation for this is that the proteinase K protein is also coated by the PD-7 additive after addition to the PFOc solvent, leading to its segregation from the co-dispersed β-Gal protein.

[2] = β-Gal activity after hydrochloric acid exposure; assay type: physicochemical; details: β-Gal in PFOc
Protocol: as §1
Here, stock of lyophilized β-Gal was prepared then dispersed in PBS or PFOc. A small volumetric quantity (1% v/v) of 10% bleach was added to the protein samples. Immediately, an equal volume of PBS containing 4 mg/mL ONPG substrate was added to the sample and incubated for 5 minutes to allow for complete substrate conversion. Last, absorbance was taken at 420 nm on the eluted samples, and relative activity was calculated by normalizing absorbance of converted ONPG in oxidizer-treated samples against their corresponding untreated group. […] Here, stock of lyophilized B-Gal was prepared then dispersed in PBS or PFOc. A small volumetric quantity (4% v/v) of 0.1 M HCl was added to the protein samples. After 30 seconds incubation, PBS containing 4 mg/mL ONPG was added to each of the samples to elute and start substrate conversion. After 3-minute conversion, the eluted samples were retrieved, and absorbance was read at 420 nm. […]

human hemoglobin (Hb) = human hemoglobin (Hb) (Homo sapiens, UniProt P68871+P69905); assay: Circular dichroism with PFNA, Hb
Description: (§2) FIGS. 14A-14L depict circular dichroism spectra of Hb (FIG. 14A), GFP (FIG. 14B), BSA (FIG. 14C), β-Gal (FIG. 14D), rabbit serum IgG (FIG. 14E), transferrin (FIG. 14F), and urease (FIG. 14G) in the absence (black line) or presence (dashed lines) of PFNA. Increasing dash sequence indicated higher concentration of PFNA. FIG. 14H: Change in molar ellipticity at 216 nm (Δθ216) of PFNA-treated proteins, relative to native controls, as a function of increasing ligand concentration. FIG. 14I: Percentage change in secondary structural motifs of Hb, β-Gal and IgG between the native protein and 1 mM PFNA treated samples. β-sheet structures were further differentiated into parallel and antiparallel conformations. Hb, β-Gal and IgG were prioritized for analysis based on their significant spectral shift in the presence of 1 mM PFNA. FIGS. 14J-14L: Sensograms for BSA (FIG. 14J), β-gal (FIG. 14K), and IgG (FIG. 14L) showing relative response (R.U.) at 10, 25, 50, 75, and 100 μM.
(§3) To explore PFNA-mediated changes in protein structure, dose-response circular dichroism (CD) studies were performed (FIG. 14A-14G). […] Remarkably, these structural changes endured even at sub-stoichiometric PFNA:protein ratios (see 0.001 mM PFNA in […]; protein concentration was constant at 0.01 mM).

transferrin = transferrin (Bos taurus, UniProt Q29443); assay: Circular dichroism with PFNA, transferrin; parameters: species or system bovine
Description: as §2, §3

rabbit serum IgG = assay: Circular dichroism with PFNA, rabbit serum IgG; details: 0.001-1 mM PFNA
Description: as §2, §3

IgG = assay: Isothermal titration calorimetry, IgG; assay type: binding, rabbit
Description: To test this assertion, PFNA binding to three exemplary proteins, BSA, β-Gal and IgG, was studied via isothermal titration calorimetry (ITC) and surface plasmon resonance (SPR) techniques. […] SPR analysis yielded similar results, with sensorgrams (FIGS. 14J-14L) that diverged from a simple 1:1 ligand-protein model. […] Similar phenomenon may explain the negative signals of the SPR data and further support the ability of PFNA to modulate the conformational plasticity of adsorbed proteins.

cells = assay: Cellular uptake of PFNA-complexed proteins; assay type: cell-based
Description: Multiplexed in vitro assays were employed to probe the influence of PFNA interactions on protein uptake and transport in cells. A549 and PC9 human lung cells were prioritized for these assays given that pulmonary tissue is a primary site of perfluoroalkyl bioaccumulation in humans (Reference: 63). Before initiating experiments, cellular toxicity assays established a maximum tolerated dose of PFNA to avoid confounding protein transport experiments with substantive cell death. Protein uptake was then studied using green fluorescent protein (GFP) and bovine serum albumin (BSACy5) as model biologics that employ non-specific pinocytic mechanisms for cellular entry.

Sequence of human hemoglobin (Hb) (P69905 whole entry): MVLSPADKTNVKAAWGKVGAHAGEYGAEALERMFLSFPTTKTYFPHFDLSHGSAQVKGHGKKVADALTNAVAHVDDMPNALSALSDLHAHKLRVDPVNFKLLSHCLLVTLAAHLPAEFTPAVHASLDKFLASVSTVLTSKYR
Sequence of human hemoglobin (Hb) (P68871 whole entry): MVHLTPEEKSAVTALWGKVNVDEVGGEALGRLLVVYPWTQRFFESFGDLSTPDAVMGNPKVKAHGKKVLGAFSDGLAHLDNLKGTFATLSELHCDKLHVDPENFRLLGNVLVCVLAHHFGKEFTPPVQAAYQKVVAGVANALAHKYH
Sequence of transferrin (Q29443 20-704): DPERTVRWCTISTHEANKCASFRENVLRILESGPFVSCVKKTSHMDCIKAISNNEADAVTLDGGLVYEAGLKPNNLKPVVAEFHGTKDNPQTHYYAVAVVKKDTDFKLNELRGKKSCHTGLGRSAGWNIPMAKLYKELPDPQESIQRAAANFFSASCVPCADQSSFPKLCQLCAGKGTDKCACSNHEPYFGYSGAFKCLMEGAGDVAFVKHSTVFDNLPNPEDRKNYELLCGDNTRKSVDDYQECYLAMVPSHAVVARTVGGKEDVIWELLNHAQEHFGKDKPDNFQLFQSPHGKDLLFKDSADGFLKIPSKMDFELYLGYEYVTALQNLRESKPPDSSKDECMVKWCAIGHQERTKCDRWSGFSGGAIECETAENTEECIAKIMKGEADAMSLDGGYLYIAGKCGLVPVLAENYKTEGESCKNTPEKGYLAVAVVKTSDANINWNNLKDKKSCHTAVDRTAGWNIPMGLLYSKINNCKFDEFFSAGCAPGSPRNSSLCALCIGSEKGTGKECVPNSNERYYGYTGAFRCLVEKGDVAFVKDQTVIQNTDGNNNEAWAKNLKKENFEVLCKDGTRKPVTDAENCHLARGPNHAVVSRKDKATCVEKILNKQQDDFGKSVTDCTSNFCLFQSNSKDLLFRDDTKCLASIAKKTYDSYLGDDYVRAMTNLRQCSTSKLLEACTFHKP

Compound | thermal stability [1] | β-Gal activity in presence of proteinase K (proteinase K; PFOc formulation) | β-Gal activity in presence of proteinase K (proteinase K; dissolved in PBS) | β-Gal activity versus PBS controls ([2]; HCl) | loss in functionality ([2]; HCl (4% v/v of 0.1 M), few minutes) | CD structural change, Hb (human hemoglobin (Hb); 0.001-0.1 mM PFNA) | CD structural change, Hb (human hemoglobin (Hb); 1 mM PFNA) | CD structural profile, transferrin (transferrin) | CD structural change, rabbit serum IgG (rabbit serum IgG) | evolution of heat (ITC) (IgG) | cellular uptake of complexed proteins (cells)
β-Gal: β-Galactosidase (β-Gal), dissolved in PBS/saline or dispersed in PFOc | enhanced | no statistically significant change in activity | completely inactivated | statistically higher than that of PBS controls | ≥ 50% | – | – | – | – | – | –
O=C(O)C(F)(F)C(F)(F)C(F)(F)C(F)(F)C(F)(F)C(F)(F)C(F)(F)C(F)(F)F [Compound 7, perfluoronanonic acid] | – | – | – | – | – | induced non-native α-helical structure | slight loss of signal | remained largely unchanged | marked increase in β-sheet content | no significant evolution of heat | significantly enhanced
